In US12214021B2 (CHINA AGRICULTURAL UNIVERSITY, priority 2018, dated 2025):

Key:
[1] = test system: osteoblasts; assay: proliferation of osteoblasts promoted by LF (MTT method); assay type: cell-based; conditions: 1 nM together with LF, FIG. 4
Description: Based on transcriptome data, the inventors verified that LF can promote the high expression of VDR at both the gene and protein levels. In order to confirm the role of this pathway in the promotion of osteoblast proliferation and differentiation by LF, the inventors first designed a VDR siRNA to achieve the purpose of transiently silencing VDR genes. The principle of siRNA is the post-transcriptional gene silencing mechanism that blocks the expression of corresponding gene. 20 μM VDR siRNA was added to osteoblasts, the proliferation rate of osteoblasts promoted by LF was detected by MTT method, and the ALP activity of osteoblasts promoted by LF was detected by enzyme-linked immunoassay.
The inventors first confirmed that LF promotes the proliferation and differentiation of osteoblasts through the regulation of the VDR pathway using the osteoblast model. Since the osteogenic effect of VDR is mainly achieved by vitamin D, in order to simulate the normal physiological environment, the inventors treated osteoblasts with both 1 nM of […] (the active form of vitamin D) and LF, and then studied the proliferation and differentiation of osteoblasts.

[2] = test system: VDR; assay: effect of p38 and TGF-β/Smads pathway inhibitors on VDR expression promoted by LF; assay type: cell-based; conditions: for effect of inhibitor on the expression of VDR promoted by LF in the cytoplasm: FIG. 17A; for effect of inhibitor on the expression of VDR promoted by LF in nucleus: FIG. 17B
Description: In order to verify the mechanism of LF for promoting the high expression of VDR, firstly, inhibitors were used in the cytoplasm to inhibit the extracellular signaling pathway to detect the promotion effect of LF on VDR. The p38 inhibitor SB203580 and the TGF-β/smads pathway inhibitor SB431542 were added to detect the expression of VDR promoted by LF.
Since VDR mainly functions in the nucleus, after inhibiting the pathway using SB203580 and SB431542 inhibitors, the expression of VDR promoted by LF in nucleus was detected.

| Structure (SMILES) | effect of the presence of 1.25(OH)2D3 on the osteogenic activity of LF [1] | effect of inhibitor on the expression of VDR promoted by LF in the cytoplasm [2] | effect of inhibitor on the expression of VDR promoted by LF in nucleus [2] |
| --- | --- | --- | --- |
| C=C1/C(=C\C=C2/CCC[C@]3(C)[C@@H]([C@H](C)CCCC(C)(C)O)CC[C@@H]23)C[C@@H](O)C[C@@H]1O [1.25(OH)2D3, reference compound] | does not affect |  |  |
| NC(=O)c1ccc(-c2nc(-c3ccc4c(c3)OCO4)c(-c3ccccn3)[nH]2)cc1 [SB431542] |  | no significant effect | no significant effect |
| C[S+]([O-])c1ccc(-c2nc(-c3ccncc3)c(-c3ccc(F)cc3)[nH]2)cc1 (centres unmarked) [SB203580] |  | no significant effect | no significant effect |
